Laboratory results published in publication PMC9181938, “Fluorinated Analogues of Lepidilines A and C: Synthesis and Screening of Their Anticancer and Antiviral Activity” (Molecules, 2022).
Read-outs that look alike come from different tables or passages of the source.

Key:
[1] = Cytotoxicity screening at 10 µM (MTT); format: cell-based, Cercopithecus aethiops; settings: Cercopithecus aethiops, Vero cells, read-out: Cell line (viability %) Vero
[2] = Cytotoxicity MTT assay (0.1–1000 µM), CC50; format: cell-based, Macaca mulatta; settings: Macaca mulatta, LLC-MK2 cells
[3] = Cytotoxicity screening at 10 µM (MTT); format: cell-based, Human; settings: human, MRC-5 cells, read-out: Cell line (viability %) MRC-5
[4] = tested on: Human herpesvirus 5 (HCMV); experiment: Antiviral screening at 10 µM, plaque reduction; format: cell-based; settings: Human betaherpesvirus 5, antiviral screening, HCMV-infected cells, read-out: Cell line (viability %) HCMV
Method: Antiviral properties of compounds 1a, 1c, 1a[PF6], 1c[PF6], 9b[PF6], 9c[PF6], 10a–10d, 2a, and 2b were assessed against five viruses: Human herpesvirus 1 (HSV-1, VR-539), Human parainfluenza virus type 3 (HPIV-3, VR-93), Human adenovirus 5 (AdV5, VR-5), Human herpesvirus 5 (HCMV, VR-977), and Encephalomyocarditis virus (EMCV, VR-1479). Viruses were purchased from the American Type Culture Collection (ATCC, Manassas, VA, USA).
All tested compounds were dissolved in DMSO (dimethyl sulfoxide, Sigma-Aldrich, Darmstadt, Germany) and then suspended in Minimum Essential Medium (MEM; Sigma-Aldrich, Darmstadt, Germany) supplemented with 2% heat-inactivated fetal bovine serum (FBS; Sigma-Aldrich, Darmstadt, Germany), 2 mM L-glutamine (Sigma-Aldrich, Darmstadt, Germany), and 100 units/mL penicillin G with […] streptomycin (Sigma-Aldrich, Darmstadt, Germany).
Vero, LLC-MK2, NCTC clone 929, MRC-5, and HeLa cells were propagated in Minimum Essential Medium (MEM; Sigma-Aldrich, Darmstadt, Germany) supplemented with 10% heat-inactivated fetal bovine serum (FBS; Sigma-Aldrich, Darmstadt, Germany) and 100 units/mL penicillin G with […] streptomycin (Sigma-Aldrich, Darmstadt, Germany). Upon reaching 80–90% confluency, cells were harvested with 0.25% trypsin in 1 mM EDTA (Life Technologies, Warsaw, Poland) and seeded onto 96-well microplates at 2 × 10^5 cells/mL. After overnight incubation of cells at 37 °C in a humidified atmosphere containing 5% CO2, the culture medium was removed, and cells were inoculated with the respective virus solution in MEM supplemented with 2% FBS and antibiotics (HSV-1 MOI 0.005, 1000 virions/mL; HPIV-3 MOI 0.01, 2000 virions/mL; AdV5 MOI 0.005, 1000 virions/mL, EMCV MOI 0.005, 1000 virions/mL, HCMV 20 PFU (plaque forming units) per well). After a 1-h (HSV-1, HPIV-3, AdV5, and EMCV) or 2-h adsorption period (HCMV), the residual virus was removed, and the infected cells were further incubated with a 100 μL freshly prepared solution of tested compounds diluted with a maintenance medium supplemented with 2% FBS to obtain compound concentrations of 10 µM. The final concentration of DMSO in the medium was 0.1%. All experiments were carried out in triplicate. The cells monolayers were incubated with the compounds at 37 °C in a humidified atmosphere containing 5% CO2 until the typical cytopathic effect (CPE) was visible. Viral infection was evaluated by the MTT assay or plaque reduction assay (HCMV). After incubation with drugs, the cells were treated with 3-(4,5-dimethylthiazol-2-yl)-2,5-diphenyltetrazolium bromide dye solution (MTT, Sigma-Aldrich, Darmstadt, Germany) (25 μL, 5 mg/mL) for 2 h and lysed with solvent solution (100 μL) containing: DMF (Sigma-Aldrich, Darmstadt, Germany) (45 mL), SDS (Sigma-Aldrich, Darmstadt, Germany) (13.5 g), and distilled water (55 mL). After overnight incubation at 37 °C, the optical density at 550 nm and a reference wavelength of 670 nm were measured on a microplate spectrophotometer, Varioskan Lux (Thermo Fisher Scientific, Waltham, MA, USA). The number of HCMV plaques was counted under an inverted microscope Olympus IX73 (Olympus, Tokyo, Japan).

[5] = tested on: Human parainfluenza virus type 3 (HPIV-3); experiment: Antiviral activity assay (0.1–1000 µM), IC50; format: cell-based; settings: Human respirovirus 3, Table S4, range 0.1-1000 µM, HPIV-3; read-out: IC50 (M) HPIV-3
In short: (§1)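 Confluent cell monolayers were infected (AdV5 and EMCV MOI 0.005, HPIV-3 MOI 0.01, 1-h adsorption; HCMV 20 PFU/well, 2-h adsorption), then incubated at 37 °C with compounds (0.1–1000 µM) in 2% FBS MEM until CPE appeared. Infection was read by MTT or, for HCMV, plaque counting. IC50 was the concentration halving plaques versus untreated infected controls.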

[6] = tested on: Human adenovirus 5 (AdV5); experiment: Antiviral activity assay (0.1–1000 µM), IC50; format: cell-based; settings: Human mastadenovirus C; Table S4, range 0.1-1000 µM, AdV5; read-out: IC50 (M) AdV5
In short: as §1

[7] = tested on: Encephalomyocarditis virus (EMCV); experiment: Antiviral activity assay (0.1–1000 µM), IC50; format: cell-based; settings: Cardiovirus A, Table S4, range 0.1-1000 µM, read-out: IC50 (M) EMCV
In short: as §1

For `Cc1c(C)n(Cc2ccccc2)c(=S)n1Cc1ccccc1` [Compound 10a], the viability at 48 h, 10 µM [1] was 83.8%, the CC50 at 48 h ([2]; LLC-MK2, MTT, 48 h, read-out: CC50 Normal Cell Lines LLC-MK2) was < 20 µM and the CC50 at 48 h ([2]; Table S2, range 0.1-1000 µM, LLC-MK2, read-out: Cell line (CC50 M) LLC-MK2) was 16.2 ± 3.75 µM. For the same compound, the viability at 48 h, 10 µM [3] was 74.3%, the viability at 10 µM [4] was 3.6% and the IC50 [5] was > 1.62e-05 M. The IC50 [6] was > 1.69e-05 M and the IC50 [7] was > 4.6e-05 M.
